Data: US20260085034A1, “N-(BENZHYDRYL)CYCLOALKYLCARBOXAMIDE DERIVATIVES AS INHIBITORS OF GLYCOGEN SYNTHASE 1 (GYS1) AND METHODS OF USE THEREOF” (Maze Therapeutics, Inc., priority 2022, published 2026)
pIC50: −log10 of the molar value.

Biological target: T1, recombinant hGYS2/GN1 protein (Homo sapiens, UniProt P54840)
T1 sequence (P54840 1-703): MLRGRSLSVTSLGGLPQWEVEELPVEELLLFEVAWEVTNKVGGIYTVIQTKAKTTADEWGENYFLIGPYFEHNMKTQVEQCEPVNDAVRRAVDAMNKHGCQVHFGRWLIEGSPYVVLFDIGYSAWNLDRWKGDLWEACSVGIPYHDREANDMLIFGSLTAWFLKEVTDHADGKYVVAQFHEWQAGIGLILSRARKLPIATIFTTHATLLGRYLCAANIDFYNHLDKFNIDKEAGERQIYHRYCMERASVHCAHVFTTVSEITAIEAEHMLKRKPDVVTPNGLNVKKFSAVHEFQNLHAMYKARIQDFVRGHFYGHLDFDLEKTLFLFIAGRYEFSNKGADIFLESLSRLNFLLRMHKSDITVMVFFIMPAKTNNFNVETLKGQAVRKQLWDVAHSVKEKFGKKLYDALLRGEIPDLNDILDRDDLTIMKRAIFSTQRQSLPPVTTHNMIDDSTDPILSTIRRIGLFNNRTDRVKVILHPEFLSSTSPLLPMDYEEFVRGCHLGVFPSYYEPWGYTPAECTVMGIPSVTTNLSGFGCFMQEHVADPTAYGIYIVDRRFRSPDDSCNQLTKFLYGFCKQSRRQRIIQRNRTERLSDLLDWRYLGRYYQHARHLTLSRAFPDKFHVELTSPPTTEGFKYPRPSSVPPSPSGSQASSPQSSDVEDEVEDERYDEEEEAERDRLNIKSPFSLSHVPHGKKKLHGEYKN
T1 sequence (P46976 1-350 partner): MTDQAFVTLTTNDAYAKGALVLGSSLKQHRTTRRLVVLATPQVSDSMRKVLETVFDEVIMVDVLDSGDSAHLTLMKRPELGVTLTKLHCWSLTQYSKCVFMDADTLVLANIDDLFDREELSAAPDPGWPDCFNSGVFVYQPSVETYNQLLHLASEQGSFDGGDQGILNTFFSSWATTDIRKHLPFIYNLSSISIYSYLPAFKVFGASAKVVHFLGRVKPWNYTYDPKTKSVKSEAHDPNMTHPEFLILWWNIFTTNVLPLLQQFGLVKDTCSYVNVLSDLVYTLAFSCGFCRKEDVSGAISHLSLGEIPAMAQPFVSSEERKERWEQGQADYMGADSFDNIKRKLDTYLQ
Assay: GYS2 coupled enzyme assay (PK/LDH)
Type: biochemical
Details: geometric mean of at least 2 assay runs; NADH absorbance at 340 nm
How it was run: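 Reaction in 50 mM Tris pH 7.5, 2 mM MgCl2, 100 mM KCl, 0.02% BSA, 1 mM TCEP, 2.5% DMSO, with 0.2% glycogen. Substrate buffer held 200 nM hGYS2/GN1, 2 mM each UDP-glucose, G6P and PEP, 0.6 mM NADH and PK/LDH, before 1:1 mixing. A340 slope over 10 min was control-normalized and Hill-fitted; IC50 = geometric mean of ≥2 runs, duplicates per run.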

- pIC50: < 4.00
Compound: CC(C)c1ccc([C@@H](NC(=O)[C@H]2C[C@@H]2F)c2ccn[nH]2)cc1F (single isomer, unassigned) [compound 11]
